Legend:
seasonal flu = conditions: in vivo; cited from earlier work
A/Perth/211/2001 WT = assay type: biochemical
[1] = biological target: purified influenza H3N2 neuraminidase (Influenza A virus, UniProt O91745); assay type: biochemical
purified influenza H3N2 neuraminidase, sequence (O91745 whole entry, looked up): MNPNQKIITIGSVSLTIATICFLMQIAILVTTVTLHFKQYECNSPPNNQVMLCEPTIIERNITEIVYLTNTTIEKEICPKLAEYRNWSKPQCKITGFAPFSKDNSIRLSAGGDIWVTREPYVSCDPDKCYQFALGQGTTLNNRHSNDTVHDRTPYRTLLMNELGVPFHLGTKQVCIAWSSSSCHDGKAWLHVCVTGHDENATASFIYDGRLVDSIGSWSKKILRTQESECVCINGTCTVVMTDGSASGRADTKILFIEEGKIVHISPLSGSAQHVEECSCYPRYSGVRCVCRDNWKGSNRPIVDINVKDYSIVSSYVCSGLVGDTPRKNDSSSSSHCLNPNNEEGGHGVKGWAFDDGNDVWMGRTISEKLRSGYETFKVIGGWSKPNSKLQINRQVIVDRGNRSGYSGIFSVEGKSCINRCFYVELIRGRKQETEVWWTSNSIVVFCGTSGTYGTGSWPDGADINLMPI

Row | SMILES | effective in prophylaxis against seasonal flu (seasonal flu) [%] | Inhibition value (A/Perth/211/2001 WT) | level of detection (LOD) of neuraminidase with this substrate [1]
1 | CC(=O)N[C@H]1[C@H]([C@H](O)[C@H](O)CO)OC(C(=O)O)=C[C@@H]1N=C(N)N [Zanamivir] | 80 | – | –
2 | CCOC(=O)C1=C[C@@H](OC(CC)CC)[C@H](NC(C)=O)[C@@H](N)C1 [Oseltamivir] | 80 | 1.48/1.34 | –
3 | CC(=O)NC1C(O)CC(Oc2ccc(CCC(=O)C(F)(F)F)cc2)(C(=O)[O-])OC1C(O)C(O)CO.[Na+] (stereo not shown) [NANA-CF3] | – | – | about 10 pM

Source: patent US12372525B2 (priority 2013, dated 2025)
